row,melting point [°C],SMILES
1,138 to 141,O=C1C[C@](c2cc(Cl)cc(Cl)c2)(C(F)(F)F)C(=O)N1
2,72 to 76,O=C(/C=C(\c1cc(Cl)cc(Cl)c1)C(F)(F)F)c1ccco1

# Source: patent publication US9469633B2 (dated 2016)
